The target of the data set is ATP-dependent translocase ABCB1 (Homo sapiens, UniProt P08183). In words: TP_TRANSPORTER: transepithelial transport (basal to apical) in MDR1-expressing MDCK cells. The following applies: dog. Type of data set: functional, cell-based.

The structures appear in SMILES notation.

ATP-dependent translocase ABCB1, sequence (P08183 whole entry): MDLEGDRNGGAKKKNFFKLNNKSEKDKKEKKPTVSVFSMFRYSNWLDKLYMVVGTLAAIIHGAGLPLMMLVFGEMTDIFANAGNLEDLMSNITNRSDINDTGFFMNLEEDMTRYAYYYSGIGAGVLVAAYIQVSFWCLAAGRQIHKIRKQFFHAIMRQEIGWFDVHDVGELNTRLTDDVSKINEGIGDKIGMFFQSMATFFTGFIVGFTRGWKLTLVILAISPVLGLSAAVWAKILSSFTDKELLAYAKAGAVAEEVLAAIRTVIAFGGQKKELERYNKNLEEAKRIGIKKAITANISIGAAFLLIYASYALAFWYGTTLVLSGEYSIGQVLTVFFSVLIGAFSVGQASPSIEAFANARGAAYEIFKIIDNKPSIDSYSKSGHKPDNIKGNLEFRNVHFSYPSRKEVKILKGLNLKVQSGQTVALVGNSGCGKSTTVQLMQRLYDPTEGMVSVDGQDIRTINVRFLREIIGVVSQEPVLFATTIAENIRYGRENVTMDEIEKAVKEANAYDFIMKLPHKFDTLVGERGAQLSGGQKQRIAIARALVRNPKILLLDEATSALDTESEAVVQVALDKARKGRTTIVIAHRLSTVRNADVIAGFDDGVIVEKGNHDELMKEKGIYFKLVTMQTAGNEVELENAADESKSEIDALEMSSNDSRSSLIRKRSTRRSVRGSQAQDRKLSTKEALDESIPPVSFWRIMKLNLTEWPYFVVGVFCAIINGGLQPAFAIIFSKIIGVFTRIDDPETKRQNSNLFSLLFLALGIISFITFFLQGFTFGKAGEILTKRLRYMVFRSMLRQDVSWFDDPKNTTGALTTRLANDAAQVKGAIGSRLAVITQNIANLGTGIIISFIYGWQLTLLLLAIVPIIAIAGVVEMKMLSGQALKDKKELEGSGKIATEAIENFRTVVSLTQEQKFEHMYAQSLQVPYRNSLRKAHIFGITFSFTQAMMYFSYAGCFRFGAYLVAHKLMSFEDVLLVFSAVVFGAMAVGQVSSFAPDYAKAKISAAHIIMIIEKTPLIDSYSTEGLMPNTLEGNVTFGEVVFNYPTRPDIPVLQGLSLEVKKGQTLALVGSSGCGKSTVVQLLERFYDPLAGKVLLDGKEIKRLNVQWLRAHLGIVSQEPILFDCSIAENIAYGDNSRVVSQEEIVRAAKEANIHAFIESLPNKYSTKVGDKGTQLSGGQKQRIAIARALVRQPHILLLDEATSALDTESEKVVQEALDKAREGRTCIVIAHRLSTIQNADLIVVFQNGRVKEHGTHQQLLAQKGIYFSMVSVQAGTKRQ

Turning to `C[C@H]1O[C@@H](O[C@H]2[C@@H](O)C[C@H](O[C@H]3[C@@H](O)C[C@H](O[C@H]4CC[C@@]5(C)[C@H](CC[C@@H]6[C@@H]5C[C@@H](O)[C@]5(C)[C@@H](C7=CC(=O)OC7)CC[C@]65O)C4)O[C@@H]3C)O[C@@H]2C)C[C@H](O)[C@@H]1O` [DIGOXIN], the Activity entry was “substrate [+]”. As to `CC(C)(C(=O)O)c1ccc(C(O)CCCN2CCC(C(O)(c3ccccc3)c3ccccc3)CC2)cc1` (configuration not stated) [FEXOFENADINE], the Activity result was “substrate [+]”.

(Values after ChEMBL document CHEMBL2074190, “Grapefruit juice activates P-glycoprotein-mediated drug transport” (Pharm Res, 1999).)
